{"source": "patent US20230090255A1", "about": "“MAGL INHIBITOR, PREPARATION METHOD THEREFOR AND USE THEREOF” (LUNAN PHARMACEUTICAL GROUP CORPORATION, priority 2019, published 2023)", "key": {"[1]": {"test_system": "ulcerative colitis mice", "test": "Mice ulcerative colitis (DSS)", "assay_type": "in vivo, BALB/c mice", "conditions": "for Total times of hematochezia within the four periods / Colon length / IL-1 content: DSS mice; for Colon length: four periods; for IL-1 content: serum, ELISA"}, "[2]": {"test_system": "mice pain response induced by hot plate", "test": "Mice pain response induced by hot plate", "assay_type": "in vivo, ICR mice", "conditions": "for Pain threshold: hot plate 55°C", "procedure,_shortened": "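Female ICR mice (20±2 g) dosed intragastrically for 7 consecutive days. Latency to hind-paw licking on a 55±0.5° C hot plate measured at 30, 60, 90 and 120 min after the last dose, with a 60 s cap. Mice with baseline latency <5 s or >30 s, or jumping, excluded.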"}, "[3]": {"test_system": "reserpine-induced mice migraine", "test": "Reserpine-induced mice migraine", "assay_type": "in vivo, ICR mice", "conditions": "for Blood coagulation time: reserpine 0.2 mg/kg sc mice, 1 h after final administration; for brain tissue 5-HT / Times of tail suspension (struggling times within 2 min): reserpine mice; for Times of tail suspension (struggling times within 2 min): 9th day"}, "[4]": {"test_system": "mice writhing caused by acetic acid", "test": "Mice writhing caused by acetic acid", "conditions": "for Writhing times: 1 h before 0.7% acetic acid ip, within 20 min; for Latent time: time to first writhing; for Inhibition ratio: writhing inhibition"}, "[5]": {"test_system": "mice with inflammatory pain", "test": "Pain threshold of mice with inflammatory pain (complete Freund's adjuvant)", "assay_type": "in vivo, SD mice", "conditions": "for Pain threshold: complete Freund's adjuvant paw model"}}}
{"smiles": "O=C(Nc1cccc(Cl)c1)C1CCN(C(=O)c2cc3ccccc3[nH]2)CC1", "note": "[MAGLZ-II-18]", "values": [{"measurement": "Total times of hematochezia within the four periods", "setting": "[1]; high dose 30 mg/kg ig", "result": "32.80±4.37"}, {"measurement": "Colon length", "setting": "[1]; high dose 30 mg/kg ig", "result": "6.73±0.63", "unit": "cm"}, {"measurement": "IL-1 content", "setting": "[1]; high dose 30 mg/kg ig", "result": "46.98 ± 7.56", "unit": "pg/mL"}, {"measurement": "Total times of hematochezia within the four periods", "setting": "[1]; low dose 7.5 mg/kg ig", "result": "32.80±4.64"}, {"measurement": "Colon length", "setting": "[1]; low dose 7.5 mg/kg ig", "result": "6.44±0.64", "unit": "cm"}, {"measurement": "IL-1 content", "setting": "[1]; low dose 7.5 mg/kg ig", "result": "46.15 ± 9.65", "unit": "pg/mL"}, {"measurement": "Total times of hematochezia within the four periods", "setting": "[1]; middle dose 15 mg/kg ig", "result": "33.90±4.77"}, {"measurement": "Colon length", "setting": "[1]; middle dose 15 mg/kg ig", "result": "6.37±0.39", "unit": "cm"}, {"measurement": "IL-1 content", "setting": "[1]; middle dose 15 mg/kg ig", "result": "49.01 ± 5.65", "unit": "pg/mL"}, {"measurement": "IL-1 content, in words", "setting": "[1]; compared with the model group", "result": "decrease"}, {"measurement": "colon length, in words", "setting": "[1]; compared with the model group", "result": "significantly increase"}, {"measurement": "total times of hematochezia, in words", "setting": "[1]; compared with the model group", "result": "reduce"}, {"measurement": "pain thresholds of the thermal-stimulus mice, in words", "setting": "[2]; compared with the model group", "result": "significantly extend"}, {"measurement": "Pain threshold", "setting": "[2]; high dose 30 mg/kg ig 7 d, 30 min after final administration", "result": "26.73 ± 7.37", "unit": "s"}, {"measurement": "Pain threshold", "setting": "[2]; high dose 30 mg/kg ig 7 d, 60 min", "result": "27.22 ± 7.29", "unit": "s"}, {"measurement": "Pain threshold", "setting": "[2]; high dose 30 mg/kg ig 7 d, 90 min", "result": "27.86 ± 7.93", "unit": "s"}, {"measurement": "Pain threshold", "setting": "[2]; high dose 30 mg/kg ig 7 d, 120 min", "result": "27.62 ± 10.01", "unit": "s"}, {"measurement": "Pain threshold", "setting": "[2]; low dose 7.5 mg/kg ig 7 d, 30 min after final administration", "result": "26.33 ± 7.52", "unit": "s"}, {"measurement": "Pain threshold", "setting": "[2]; low dose 7.5 mg/kg ig 7 d, 60 min", "result": "26.74 ± 7.05", "unit": "s"}, {"measurement": "Pain threshold", "setting": "[2]; low dose 7.5 mg/kg ig 7 d, 90 min", "result": "27.16 ± 7.32", "unit": "s"}, {"measurement": "Pain threshold", "setting": "[2]; low dose 7.5 mg/kg ig 7 d, 120 min", "result": "26.64 ± 10.03", "unit": "s"}, {"measurement": "Pain threshold", "setting": "[2]; middle dose 15 mg/kg ig 7 d, 30 min after final administration", "result": "26.41 ± 7.53", "unit": "s"}, {"measurement": "Pain threshold", "setting": "[2]; middle dose 15 mg/kg ig 7 d, 60 min", "result": "27.09 ± 7.53", "unit": "s"}, {"measurement": "Pain threshold", "setting": "[2]; middle dose 15 mg/kg ig 7 d, 90 min", "result": "27.58 ± 7.71", "unit": "s"}, {"measurement": "Pain threshold", "setting": "[2]; middle dose 15 mg/kg ig 7 d, 120 min", "result": "27.38 ± 9.97", "unit": "s"}, {"measurement": "blood coagulation time, in words", "setting": "[3]; compared with the model group", "result": "significantly extend"}, {"measurement": "level of 5-HT in the brain tissue, in words", "setting": "[3]; compared with the model group", "result": "significantly increase"}, {"measurement": "times of the tail suspension activity, in words", "setting": "[3]; compared with the model group", "result": "significantly increase"}, {"measurement": "Blood coagulation time", "setting": "[3]; high dose 30 mg/kg ig 10 d", "result": "241.5 ± 41.63", "unit": "S"}, {"measurement": "Blood coagulation time", "setting": "[3]; low dose 7.5 mg/kg ig 10 d", "result": "186.5±51.71", "unit": "S"}, {"measurement": "Blood coagulation time", "setting": "[3]; middle dose 15 mg/kg ig 10 d", "result": "212.63±46.02", "unit": "S"}, {"measurement": "brain tissue 5-HT", "setting": "[3]; high dose 30 mg/kg ig 10 d", "result": "2.08 ± 0.59", "unit": "nmol/g"}, {"measurement": "Times of tail suspension (struggling times within 2 min)", "setting": "[3]; high dose 30 mg/kg ig", "result": "16.51±4.38"}, {"measurement": "brain tissue 5-HT", "setting": "[3]; low dose 7.5 mg/kg ig 10 d", "result": "1.13 ± 0.45", "unit": "nmol/g"}, {"measurement": "Times of tail suspension (struggling times within 2 min)", "setting": "[3]; low dose 7.5 mg/kg ig", "result": "11.88±4.02"}, {"measurement": "brain tissue 5-HT", "setting": "[3]; middle dose 15 mg/kg ig 10 d", "result": "1.54 ± 0.54", "unit": "nmol/g"}, {"measurement": "Times of tail suspension (struggling times within 2 min)", "setting": "[3]; middle dose 15 mg/kg ig", "result": "13.75±4.56"}, {"measurement": "Writhing times", "setting": "[4]; high dose 30 mg/kg ig", "result": "15.8±15.3"}, {"measurement": "Latent time", "setting": "[4]; high dose 30 mg/kg ig", "result": "410.9 ± 186.5", "unit": "s"}, {"measurement": "Inhibition ratio", "setting": "[4]; high dose 30 mg/kg ig", "result": 59.8, "unit": "%"}, {"measurement": "Writhing times", "setting": "[4]; low dose 7.5 mg/kg ig", "result": "25.0±13.5"}, {"measurement": "Latent time", "setting": "[4]; low dose 7.5 mg/kg ig", "result": "318.7 ± 120.2", "unit": "s"}, {"measurement": "Inhibition ratio", "setting": "[4]; low dose 7.5 mg/kg ig", "result": 36.4, "unit": "%"}, {"measurement": "Writhing times", "setting": "[4]; middle dose 15 mg/kg ig", "result": "21.8±12.4"}, {"measurement": "Latent time", "setting": "[4]; middle dose 15 mg/kg ig", "result": "381.4 ± 127.1", "unit": "s"}, {"measurement": "Inhibition ratio", "setting": "[4]; middle dose 15 mg/kg ig", "result": 44.5, "unit": "%"}, {"measurement": "pain threshold of the mice with inflammatory pain, in words", "setting": "[5]; compared with the model group", "result": "significantly extend"}, {"measurement": "Pain threshold", "setting": "[5]; high dose 30 mg/kg ig once per day, 0 d", "result": "12.85±2.26^∗∗ s"}, {"measurement": "Pain threshold", "setting": "[5]; high dose 30 mg/kg ig once per day, 1 d", "result": "6.95±0.85^∗∗ s"}, {"measurement": "Pain threshold", "setting": "[5]; high dose 30 mg/kg ig once per day, 3 d", "result": "8.49±1.15^∗∗ s"}, {"measurement": "Pain threshold", "setting": "[5]; high dose 30 mg/kg ig once per day, 7 d", "result": "9.62±0.93^∗∗ s"}, {"measurement": "Pain threshold", "setting": "[5]; low dose 7.5 mg/kg ig once per day, 0 d", "result": "12.73±2.43^∗ s"}, {"measurement": "Pain threshold", "setting": "[5]; low dose 7.5 mg/kg ig once per day, 1 d", "result": "6.39±0.91^∗ s"}, {"measurement": "Pain threshold", "setting": "[5]; low dose 7.5 mg/kg ig once per day, 3 d", "result": "8.12±1.29^∗ s"}, {"measurement": "Pain threshold", "setting": "[5]; low dose 7.5 mg/kg ig once per day, 7 d", "result": "9.16±1.17^∗ s"}, {"measurement": "Pain threshold", "setting": "[5]; middle dose 15 mg/kg ig once per day, 0 d", "result": "12.86±2.25^∗∗ s"}, {"measurement": "Pain threshold", "setting": "[5]; middle dose 15 mg/kg ig once per day, 1 d", "result": "6.62±0.69^∗∗ s"}, {"measurement": "Pain threshold", "setting": "[5]; middle dose 15 mg/kg ig once per day, 3 d", "result": "8.24±0.73^∗∗ s"}, {"measurement": "Pain threshold", "setting": "[5]; middle dose 15 mg/kg ig once per day, 7 d", "result": "9.51±1.15^∗∗ s"}]}
